Tests used:
MDA-MB-231 = test: Cytotoxicity against human MDA-MB-231 cells assessed as inhibition of cell growth at 20 uM measured after 72 hrs by MTT assay relative to control; assay type: functional
HCT-116 [1] = test: Cytotoxicity against human HCT-116 cells assessed as inhibition of cell growth at 20 uM measured after 72 hrs by MTT assay relative to control; assay type: functional
A549 [2] = test: Cytotoxicity against human A549 cells assessed as inhibition of cell growth at 20 uM measured after 72 hrs by MTT assay relative to control; assay type: functional
A549 [3] = test: Cytotoxicity against human A549 cells assessed as inhibition of cell growth measured after 72 hrs by MTT assay; assay type: functional, cell-based
HCT-116 [4] = test: Cytotoxicity against human HCT-116 cells assessed as inhibition of cell growth measured after 72 hrs by MTT assay; assay type: functional, cell-based; details: HCT-116, 72 h
TAK1-TAB1 fusion protein = TAK1-TAB1 fusion protein (Homo sapiens, UniProt O43318); test: Inhibition of Tak1/Tab1 (unknown origin) assessed as inhibition of Tak1 kinase activity preincubated for 30 mins followed by addition of MBP protein and ATP and measured after 2 hrs by ADP-Glo kinase assay
MAP3K7/TAB1 [+] = test: Inhibition of Tak1/Tab1 (unknown origin) assessed as inhibition of Tak1 kinase activity preincubated for 30 mins followed by addition of MBP protein and ATP and measured after 2 hrs by ADP-Glo kinase assay
[5] = Homo sapiens, A549, 72 h, read-out: IC50

Chain of TAK1-TAB1 fusion protein (O43318 whole entry, looked up, the tested form may be a part): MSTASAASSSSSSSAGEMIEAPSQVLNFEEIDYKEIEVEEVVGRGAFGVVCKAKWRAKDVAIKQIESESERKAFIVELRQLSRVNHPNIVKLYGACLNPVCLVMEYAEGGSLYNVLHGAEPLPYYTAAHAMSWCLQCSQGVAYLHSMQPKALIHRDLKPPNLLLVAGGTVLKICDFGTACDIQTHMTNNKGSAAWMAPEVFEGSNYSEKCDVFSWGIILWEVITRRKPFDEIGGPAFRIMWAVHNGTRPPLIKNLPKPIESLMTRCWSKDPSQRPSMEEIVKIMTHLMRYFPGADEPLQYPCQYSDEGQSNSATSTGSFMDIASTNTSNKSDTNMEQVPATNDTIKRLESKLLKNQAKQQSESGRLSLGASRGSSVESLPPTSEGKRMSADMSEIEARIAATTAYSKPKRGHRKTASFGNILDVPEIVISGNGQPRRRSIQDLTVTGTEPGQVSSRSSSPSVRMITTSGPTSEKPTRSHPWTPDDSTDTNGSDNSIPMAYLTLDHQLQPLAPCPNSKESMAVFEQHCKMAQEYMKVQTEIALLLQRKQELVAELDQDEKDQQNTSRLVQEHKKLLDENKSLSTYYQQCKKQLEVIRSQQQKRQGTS

IC50 (TAK1-TAB1 fusion protein) [µM]	IC50 (MAP3K7/TAB1 [+])	Structure (SMILES)	inhibition at 20 µM (MDA-MB-231) [%]	inhibition at 20 µM (HCT-116 [1]) [%]	inhibition at 20 µM (A549 [2]) [%]	IC50 (A549 [3]; [5]) [µM]	IC50 (HCT-116 [4]) [µM]	IC50 (A549 [3]; a549)
		c1cc(N2CCOCC2)nc(Nc2ccc(Oc3ncnc4sccc34)cc2)n1	14.5	37.5	36.7	9.31		
		CN(c1ccc(Oc2ncnc3ccsc23)cc1)c1nccc(N2CCc3ccccc32)n1	38.2	57.8	58.2	20.5		
1.36		CNC(=O)c1cc(Oc2ccc(Nc3nccc(N4CCCC4)n3)cc2)ccn1	46.6	66.4	59.6	3.41	1.41	
15.7		c1cc(N2CCOCC2)nc(Nc2ccc(Oc3ncnc4ccsc34)cc2)n1	23	53.1	57.9	6.86		
2.52		c1cc(N2CCCCC2)nc(Nc2ccc(Oc3ncnc4sccc34)cc2)n1	40.4	66.3	64.8	4.02		
		CN(c1ccc(Oc2ncnc3sccc23)cc1)c1nccc(N2CCCC2)n1	31	42.2	55.5	15.1		
		c1cc(N2CCCC2)nc(Nc2ccc(Oc3ncnc4ccsc34)cc2)n1	14.3	22.2	23.2			Not Active
		c1cc(N2CCCCC2)nc(Nc2ccc(Oc3ncnc4ccsc34)cc2)n1	45.7	61.5	59.9	7.8		
		CN(C)c1ccc(C(=O)Nc2ccc(Oc3ncnc4ccsc34)cc2)cc1	10.4	53.9	50.8	20.2		
6.87		c1ccc2c(c1)CCN(c1ccnc(Nc3ccc(Oc4ncnc5sccc45)cc3)n1)C2	26.8	18.1	34	6.75		
		c1ccc2c(c1)CCN(c1ccnc(Nc3ccc(Oc4ncnc5ccsc45)cc3)n1)C2	15.4	40.9	54.9	17		
		CN(c1ccc(Oc2ncnc3sccc23)cc1)c1nccc(N2CCCCC2)n1	29.3	52.1	51.9	8.79		
		c1ccc2c(c1)CCN2c1ccnc(Nc2ccc(Oc3ncnc4sccc34)cc2)n1	9.95	-0.62	2.81			Not Active
12		CN(c1ccc(Oc2ncnc3sccc23)cc1)c1nccc(N2CCc3ccccc3C2)n1	24.3	57.7	68.4	6.39		
		CN(c1ccc(Oc2ncnc3ccsc23)cc1)c1nccc(N2CCCCC2)n1	49.7	66.2	65.7	8.24		
		c1cc(N2CCCC2)nc(Nc2ccc(Oc3ncnc4sccc34)cc2)n1	24.7	54.4	61	8.1		
		CN(c1ccc(Oc2ncnc3sccc23)cc1)c1nccc(N2CCc3ccccc32)n1	17.6	20	29.4	19.6		
		CCN(CC)c1ccc(C(=O)Nc2ccc(Oc3ncnc4ccsc34)cc2)cc1	38.3	37.9	63.8	8.03		
		CNC(=O)c1cc(Oc2ccc(Nc3nccc(N4CCOCC4)n3)cc2)ccn1	34.1	48.3	66.3	7.34	12.8	
1.26		CNC(=O)c1cc(Oc2ccc(Nc3nccc(N4CCc5ccccc5C4)n3)cc2)ccn1	41.2	31.2	59.6	3.19	15.8	
	Not Active	CN(c1ccc(Oc2ncnc3ccsc23)cc1)c1nccc(N2CCCC2)n1	38	63.5	63.9	6.51		
		c1ccc(CNc2ccc(Oc3ncnc4ccsc34)cc2)cc1	3.72	-12.2	30.6			Not Active
		CN(c1ccc(Oc2ncnc3ccsc23)cc1)c1nccc(N2CCc3ccccc3C2)n1	30.2	58.3	69.9	16.1		
